In US5712274A, “Thienotriazolodiazepine compounds and their pharmaceutical use” (Yoshitomi Pharmaceutical Industries, Ltd., priority 1995, dated 1998):

Assays:
TNBS-induced colitis = experiment: Effect on TNBS-induced colitis model in rats (oral administration); type: in vivo, SD rats; conditions: for Intestinal weight (mean ± S.D.) / MPO activity (mean ± S.D.): TNBS, 7 days
Description: Effect on trinitrobenzenesufonic acid (TNBS)-induced colitis model in rats
Colitis was induced by intrarectal injection of TNBS solution (60 mg/ml in 50% EtOH, 500 μl/rat) to SD rats. Seven days later, rats were sacrificed and large intestine (8 cm from anus) was cut off and weighed. Myeloperoxidase (MPO) activity in the intestinal tissue was measured as follows and taken as an indicator of leukocyte infiltration: the intestinal tissue was homogenized and a cycle of freeze-thawing of the tissue was repeated 3 times. The supernatant obtained by centrifugation was assayed for MPO activity with substrate for peroxidase (o-phenylenediamine). MPO activity in the supernatant was calculated with the commercial MPO as a standard. The increases in intestinal weight and MPO activity as described above were taken as indicators of colitis. Test compound was suspended in 0.5% hydroxypropylmethylcellulose solution and administered p.o. (0.1 ml/10 g body weight) for 5 days beginning on the day of TNBS injection.

glomerulonephritis = experiment: Effect on glomerulonephritis in mice (anti-GBM antiserum); type: in vivo, female C57BL/6 mice; conditions: 12 days after anti-GBM antiserum, 0-5 points
Description: Effect on glomerulonephritis in mice
Rabbit immunoglobulin G solution (4 mg/ml in saline) was mixed with Freund's complete adjuvant at a ratio of 1:1 and the emulsion was prepared. The emulsion was injected into peritoneal cavity of female C57BL/6 mice (0.25 ml/mouse). After 5 days, rabbit anti-mouse glomerular basement membrane (GBM) antiserum obtained by the method of Nagai et al. (Japan. J. Pharmacol., 32, 1117, 1982) was administered i.v. (0.08 ml/mouse). […] Test compounds were suspended in 0.5% hydroxypropylmethylcellulose (HPMC) solution and administered p.o. (0.1 ml/10 g body weight) for 13 days beginning on the day of anti-GBM ant-serum injection.

[1] = tested on: antigen induced Eosinophils accumulation into lungs; experiment: Effect on antigen induced eosinophils accumulation into lungs in actively sensitized guinea pigs; type: in vivo, male Dunkin-Hartley guinea pigs; conditions: 30 mg/kg p.o., BALF 24 h after antigen exposure
Description: Effect on antigen induced Eosinophils accumulation into lungs in actively sensitized guinea pigs
Male Dunkin-Hartley guinea pigs (4W, Japan SLC, Inc.) were used throughout this study.
Sensitized animals were orally administered (p.o.) with compound or solvent (0.5% hydroxymethylcellulose) 30 min. before final sensitization, 30 min. before antigen exposure and 4.5 h after antigen exposure.
Egg albumin (EA, 10 μg) was added to AI(OH)3 (10 mg) in sterile physiological saline (0.5 ml) and mixed in a blender. This mixture was injected intraperitoneally into recipients. And after 14 days and 21 days, the procedure was repeated. Seven days after the final sensitization procedure, Mepyramine 10 mg/kg was injected intraperitoneally into the sensitized animals. After 30 min., the animals were exposed to aerosol of 1% EA in sterile physiological saline for 5 min.
24 h after antigen exposure, the animals were killed by exsanguination and tracheae were cannulated. And the lungs were lavaged three times with 10 ml of sterile physiological saline. Lavage fluid (BALF) was centrifuged (800 rpm for 10 min. at 4° C.) and the cell pellet was resuspended in 10 ml of sterile physilolgical saline and total cell numbers in BALF were counted in a hemocytometer (MEK 4200, Nihon-kohden, Ltd.). Differential cell counts were made from centrifuged preparations stained with May-Giemsa stain.

[2] = tested on: lipopolysaccharide (LPS)-induced adhesion of leukocytes; experiment: Effect on lipopolysaccharide (LPS)-induced adhesion of leukocytes; type: in vivo, BALB/c mice; conditions: 6 hr after LPS
Text: Effect on lipopolysaccharide (LPS)-induced adhesion of leukocytes
It has been reported that, by the administration of LPS to mice, an adhesion molecule, Mac-1-dependent leukocyte adhesion is induced, the leukocytes infiltrate into lung, liver and so on, and in result the number of peripheral blood leukocytes reduces (Morisaki et al., Clin. Immunol. Immunopathol., 61, 365-375, 1991). The effect on LPS-induced leukocyte adhesion was investigated by taking the reduction of peripheral blood leukocytes as an indicator of leukocyte adhesion.
LPS solution (50 ng/ml in saline, 0,5 ml/mouse) was injected into peritoneal cavity of BALB/c mice on day 0. Six hr after the LPS injection, the number of peripheral blood leukocytes was counted with an automatic blood cell counter. Test compounds were suspended in 0.5% hydroxypropylmethylcellulose solution and administered p.o. (0.1 ml/10 g body weight) on days -4 to 0.

[3] = tested on: thioglycollate (TG) medium-induced infiltration of leukocytes; experiment: Effect on thioglycollate (TG) medium-induced infiltration of leukocytes; type: in vivo, BALB/c mice; conditions: TG medium 1 ml, day 4
Description: Effect on thioglycollate (TG) medium-induced infiltration of leukocytes
One ml of TG medium was injected into peritoneal cavity of BALB/c mice on day 0. On day 4, leukocytes infiltrating into the peritoneal cavity were collected with 3 ml of phosphatebuffered saline containing 0.02% EDTA and the density of leukocytes (cells/ml) was counted with an automatic blood cell counter. Total number of leukocytes (X) was calculated from the density of leukocytes (A) with the following formula.
Test compounds were suspended in 0.5% hydroxypropylmethyl-cellulose solution and administered p.o. (0.1 ml/10 g body weight) on days 0 to 3.

CD11b = experiment: Effect on CD11b expression in human histiocytic leukemia cell line, U937 cells (PDB-induced); type: cell-based; conditions: U-937, 72 h, U937 cells, PDB 10 ng/ml, 3 days, read-out: Inhibitory effect on CD11b expression (IC50)
Description: Effect on CD11b expression human histiocytic leukemia cell line, U937 cells
Effect on the expression of CD11b antigen, which is the α chain of an adhesion molecule, Mac-1 expressing on the surface of leukocytgic cells, was investigated. U937 cells were suspended in RPMI1640 medium containing 20% fetal calf serum (FCS), plated with phorbol 12,13-dibutyrate (PDB, 10 ng/ml) into 96-well filtration plates, and cultured for 3 days at 37° C. in 5% CO2. After the cells were washed once with RPMI1640 medium, rat anti-human CD11b antibody (2 μg/ml) was added to each well and the plates were incubated for 1 hr on ice. After the cell were washed twice, peroxidase-conjugated anti-rat immunoglobulin antibody (1 μg/ml) was added, and the cells were incubated for 1 hr on ice. After the cells were washed 3 times, substrate for peroxidase (o-phenylenediamine) was added. After the plates were stood for 15 min at room temperature, absorbance at 490 nm was measured with a 96-well microplate reader and was regarded as a indicator of CD11b antigen expression.

## CNC(=O)C[C@@H]1N=C(c2ccc(Cl)cc2)c2c(sc(C)c2C)-n2c(C)nnc21 [Example 1, (S)-N-methyl-4-(4-chloro-phenyl)-2,3,9-trimethyl-6H-thieno[3,2-f][1,2,4]triazolo[4,3-a]-[1,4]diazepine-6-acetamide 1/4 hydrate]
TNBS-induced colitis; 0.3 mg/kg/day p.o.
  Intestinal weight (mean ± S.D.): 1328.6 ± 1411.4 mg
  MPO activity (mean ± S.D.): 1.389 ± 2.806 U/ml
TNBS-induced colitis; 1 mg/kg/day p.o.
  Intestinal weight (mean ± S.D.): 574.2 ± 93.1 mg
  MPO activity (mean ± S.D.): 0.221 ± 0.020 U/ml
TNBS-induced colitis; p.o., Tables 6A and 6B
  Effect on intestinal weight and leukocyte infiltration in colitis (in words): significantly inhibit the increase in intestinal weight and the leukocyte infiltration caused by colitis in rats
glomerulonephritis; 1 mg/kg/day p.o.
  Score (mean ± S.D.) of protein level in urine: 2.56 ± 0.53
glomerulonephritis; 3 mg/kg/day p.o.
  Score (mean ± S.D.) of protein level in urine: 2.22 ± 0.67
[1]
  Number of eosinophils: 7.0 ± 1.4 × 10^6
[2]; 0.3 mg/kg/day p.o.
  Number of peripheral blood leukocytes (mean ± S.D.): 32 ± 5 × 100/μl
[2]; 1 mg/kg/day p.o.
  Number of peripheral blood leukocytes (mean ± S.D.): 50 ± 15 × 100/μl
[2]; 3 mg/kg/day p.o.
  Number of peripheral blood leukocytes (mean ± S.D.): 61 ± 13 × 100/μl
[3]; 0.03 mg/kg/day p.o.
  Total number of leukocytes (mean ± S.D.): 1059 ± 285 × 10^4
[3]; 0.1 mg/kg/day p.o.
  Total number of leukocytes (mean ± S.D.): 719 ± 308 × 10^4
[3]; 0.3 mg/kg/day p.o.
  Total number of leukocytes (mean ± S.D.): 442 ± 117 × 10^4
CD11b
  IC50: 260 nM
